From patent publication US9393232B2 (BeiGene, Ltd., priority 2013, dated 2016)
Where two headings read alike, the source gives them in different places.

Experiments:
[1] = target: Recombinant human BRD4(1-477) (Homo sapiens (Human), UniProt O60885); assay: BRD4 TR-FRET biochemical IC50 assay; format: binding; conditions: tetra-acetylated histone peptide
[2] = target: Recombinant human BRD2(1-473) (Homo sapiens (Human), UniProt P25440); assay: BRD2 TR-FRET biochemical IC50 assay; format: binding
[3] = target: Recombinant human BRDT(1-397) (Homo sapiens (Human), UniProt Q58F21); assay: BRDT TR-FRET biochemical IC50 assay; format: binding
[4] = target: Recombinant human BRD3(1-435) (Homo sapiens (Human), UniProt Q15059); assay: BRD3 TR-FRET biochemical IC50 assay; format: binding
[5] = tested on: MV4-11; assay: MV4-11 (3 Days) EC50; format: cell-based
[6] = TR-FRET, tetra-acetylated histone peptide, read-out: BRD2 IC50
[7] = TR-FRET, tetra-acetylated histone peptide, read-out: BRDT IC50
[8] = TR-FRET, tetra-acetylated histone peptide, read-out: BRD3 IC50

Sequence of Recombinant human BRD3(1-435) (Q15059 1-435): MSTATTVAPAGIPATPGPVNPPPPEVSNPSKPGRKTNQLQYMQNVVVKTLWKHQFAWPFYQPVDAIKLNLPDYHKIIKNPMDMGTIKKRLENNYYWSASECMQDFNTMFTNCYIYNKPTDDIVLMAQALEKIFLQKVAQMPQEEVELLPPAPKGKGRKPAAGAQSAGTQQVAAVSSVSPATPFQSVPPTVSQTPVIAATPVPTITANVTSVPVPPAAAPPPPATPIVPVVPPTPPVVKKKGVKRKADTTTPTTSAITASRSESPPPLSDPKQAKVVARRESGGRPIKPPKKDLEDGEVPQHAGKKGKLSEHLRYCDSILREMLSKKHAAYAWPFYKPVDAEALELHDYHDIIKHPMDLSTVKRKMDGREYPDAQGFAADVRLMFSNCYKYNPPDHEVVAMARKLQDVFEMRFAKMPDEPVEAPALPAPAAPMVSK
Sequence of Recombinant human BRD2(1-473) (P25440 1-473): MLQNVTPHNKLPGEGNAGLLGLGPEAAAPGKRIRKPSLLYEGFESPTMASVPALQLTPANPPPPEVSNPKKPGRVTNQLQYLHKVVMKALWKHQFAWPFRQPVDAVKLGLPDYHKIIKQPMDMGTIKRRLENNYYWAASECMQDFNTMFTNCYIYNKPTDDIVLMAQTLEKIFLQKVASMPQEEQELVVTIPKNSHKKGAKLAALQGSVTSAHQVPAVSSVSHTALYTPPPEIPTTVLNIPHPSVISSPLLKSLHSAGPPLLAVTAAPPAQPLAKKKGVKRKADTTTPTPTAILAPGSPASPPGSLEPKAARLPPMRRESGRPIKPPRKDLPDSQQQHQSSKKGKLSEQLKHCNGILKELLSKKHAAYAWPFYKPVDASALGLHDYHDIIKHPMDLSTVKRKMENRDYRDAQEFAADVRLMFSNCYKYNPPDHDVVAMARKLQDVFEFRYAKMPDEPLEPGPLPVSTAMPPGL

Compound | IC50 ([1]; TR-FRET, read-out: BRD4 IC50) [nM] | IC50 [2, 6] [nM] | IC50 [3, 7] [nM] | IC50 [4, 8] [nM] | EC50 ([5]; Homo sapiens, MV4-11, 72 h) [nM] | also measured
Cc1noc(C)c1-c1ccc2c(c1)C(O)(C1CCCCC1=O)C(=O)N2 (single isomer, unassigned) [Compound 1.30a, 5-(3,5-Dimethylisoxazol-4-yl)-3-hydroxy-3-(2-oxocyclohexyl)indolin-2-one] | 70 | 52 | 58 | 25 | – | –
Cc1noc(C)c1-c1ccc2c(c1)C(N[C@H](C)CO)(c1ccccc1)C(=O)N2 (single isomer, unassigned) [Compound 2.10a] | – | 24 | 69 | 23 | – | –
Cc1noc(C)c1-c1ccc2c(c1)C(O)(c1ccsc1)C(=O)N2 (single isomer, unassigned) [Compound 4.1b, 5-(3,5-Dimethylisoxazol-4-yl)-3-hydroxy-3-(thiophen-3-yl)indolin-2-one] | – | – | – | – | – | IC50 ([1]; BRD4 IC50, TR-FRET): 34 nM; IC50 [2]: 18 nM; EC50 ([5]; Homo sapiens, 72 h): 73 nM; IC50 [3]: 31 nM; IC50 [4]: 14 nM
Cc1noc(C)c1-c1ccc2c(c1)C(NCC(C)O)(C1CCCCC1)C(=O)N2 (stereo in doubt) [Compound 2.22, 3-cyclohexyl-5-(3,5-dimethylisoxazol-4-yl)-3-((R)-2-hydroxypropylamino)indolin-2-one] | 81 | 32 | 42 | 23 | – | EC50 [5]: 116 nM
Cc1noc(C)c1-c1ccc2c(c1)C(O)(C1CCOCC1)C(=O)N2 (stereo not drawn) [Compound 1.16, 5-(3,5-dimethylisoxazol-4-yl)-3-hydroxy-3-(tetrahydro-2H-pyran-4-yl)indolin-2-one] | 630 | 380 | 510 | 140 | – | –
Cc1noc(C)c1-c1ccc2c(c1)C(c1ccccc1)(N1CCC[C@H](O)C1)C(=O)N2 (stereo partly drawn) [Compound 2.16, 5-(3,5-dimethylisoxazol-4-yl)-3-((S)-3-hydroxypiperidin-1-yl)-3-phenylindolin-2-one] | – | 9.6 | 23 | 9.9 | – | –
Cc1noc(C)c1-c1ccc2c(c1)C(c1ccccc1)(N1CCC[C@H](N)C1)C(=O)N2 (stereo partly drawn) [Compound 2.46, 3-((S)-3-aminopiperidin-1-yl)-5-(3,5-dimethylisoxazol-4-yl)-3-phenylindolin-2-one] | 11 | 6.6 | 14 | 5.3 | – | –
Cc1noc(C)c1-c1ccc2c(c1)C(CCCO)(c1ccccc1)C(=O)N2 (stereo not drawn) [Compound 3.2, 5-(3,5-dimethylisoxazol-4-yl)-3-(3-hydroxypropyl)-3-phenylindolin-2-one] | 52 | – | – | – | 125 | –
CCOC(=O)CC1(c2ccccc2)C(=O)Nc2ccc(-c3c(C)noc3C)cc21 (stereo not drawn) [Compound 3.3, Ethyl 2-(5-(3,5-dimethylisoxazol-4-yl)-2-oxo-3-phenylindolin-3-yl)acetate] | 440 | – | – | – | 787 | –
Cc1noc(C)c1-c1ccc2c(c1)C(CCO)(c1ccccc1)C(=O)N2 (stereo not drawn) [Compound 3.5, 5-(3,5-Dimethylisoxazol-4-yl)-3-(2-hydroxyethyl)-3-phenylindolin-2-one] | 120 | – | – | – | 140 | –
Cc1noc(C)c1-c1ccc2c(c1)C(CCCN1CCOCC1)(c1ccccc1)C(=O)N2 (stereo not drawn) [Compound 3.6, 5-(3,5-dimethylisoxazol-4-yl)-3-(3-morpholinopropyl)-3-phenylindolin-2-one] | 100 | – | – | – | 270 | –
Cc1noc(C)c1-c1ccc2c(c1)C(CCCN1CCN(C)CC1)(c1ccccc1)C(=O)N2 (stereo not drawn) [Compound 3.7, 5-(3,5-Dimethylisoxazol-4-yl)-3-(3-(4-methylpiperazin-1-yl)propyl)-3-phenylindolin-2-one] | 53 | – | – | – | 116 | –
Cc1noc(C)c1-c1ccc2c(c1)C(CCCN1CCNCC1)(c1ccccc1)C(=O)N2 (stereo not drawn) [Compound 3.8, 5-(3,5-Dimethylisoxazol-4-yl)-3-phenyl-3-(3-(piperazin-1-yl)propyl)indolin-2-one] | 51 | – | – | – | 62 | –
Cc1noc(C)c1-c1ccc2c(c1)C(CCCN1CCC(O)CC1)(c1ccccc1)C(=O)N2 (stereo not drawn) [Compound 3.9, 5-(3,5-Dimethylisoxazol-4-yl)-3-(3-(4-hydroxypiperidin-1-yl)propyl)-3-phenylindolin-2-one] | 120 | – | – | – | 377 | –
Cc1noc(C)c1-c1ccc2c(c1)C(CCCN(C)C)(c1ccccc1)C(=O)N2 (stereo not drawn) [Compound 3.10, 3-(3-(Dimethylamino)propyl)-5-(3,5-dimethylisoxazol-4-yl)-3-phenylindolin-2-one] | 140 | – | – | – | 490 | –
Cc1noc(C)c1-c1ccc2c(c1)C(O)(c1ccsc1)C(=O)N2 (stereo not drawn) [Compound 4.1, 5-(3,5-Dimethylisoxazol-4-yl)-3-hydroxy-3-(thiophen-3-yl)indolin-2-one] | 100 | – | – | – | – | EC50 ([5]; Homo sapiens, 72 h): 140 nM
Cc1noc(C)c1-c1ccc2c(c1)C(NC(=O)CN(C)C)(c1ccccc1)C(=O)N2 (stereo not drawn) [Compound 6.0, 2-(Dimethylamino)-N-(5-(3,5-dimethylisoxazol-4-yl)-2-oxo-3-phenylindolin-3-yl)acetamide] | 320 | – | – | – | 746 | –
